Where no end group is shown, it is not given here.
Columns and labels:
[1] = system: healthy PBMC's; test: PBMC activation, CD69 or CD71 by flow cytometry, normal human AB serum; type: cell-based; conditions: 40 μg/mL, 24 hours, RPMI plus 10% human AB serum
Procedure: FIG. 2A-B are a series of graphs illustrating effects of the full length peptide P28R and the 6 amino acid central sequence (32230, FFVKLS, SEQ ID NO: 1) in culture medium containing normal human AB serum. Activation is determined as percentage of cells with enhanced marker CD69 or CD71 using flow cytometry. PBMCs were incubated with the peptides (40 μg/mL) for 24 hours in RPMI plus 10% human AB serum. FIG. 2A illustrates the results of two experiments (420 and 422) performed for each peptide. FIG. 2B illustrates the results of two experiments (424 and 426) performed for each peptide.
P28R (SEQ ID NO: 2) can stimulate PBMC's from healthy controls in short term cultures when RPMI plus 10% normal human AB serum is used as culture medium. Truncations of P28R were also assessed for their ability to activate PBMC's. PBMCs were incubated with the peptides (40 μg/mL) for 24 hours in RPMI plus 10% human AB serum. PBMC activation was measured as percent cells with enhanced expression of either CD69 (FIG. 2A) or CD71 (FIG. 2B) using flow cytometry. Two experiments were performed for each peptide.
A test for direct stimulatory effects on immune cells was performed.

[2] = system: PBMCs; test: Direct binding to PBMCs (immunocytochemistry, rosetting of coated beads); conditions: immunocytochemistry or rosetting of coated beads
[3] = system: PBMCs; test: PBMC activation (CD69) in culture medium containing cancer sera; type: cell-based; conditions: sera from dogs with cancer or human patients with cancer instead of normal AB serum
Procedure: FIG. 3 is a graph illustrating a comparison of the full length peptide P28R and the 6 amino acid “P28 core” sequence (32230, FFVKLS, SEQ ID NO: 1) in culture medium containing sera from two different cancer patients (“human ca serum 1” 430 and (“human ca serum 2” 432).
Additionally, P28R and P28 core were tested for their ability to alleviate immunosuppression in cancer cells.

peptide 32251: truncation of P28R, SEQ ID NO: 4 (KKLDTFFPKLSLFTER; Peptide 32251)
PBMC activation (enhanced expression of CD69 or CD71) [1]: did not activate healthy PBMC's

biotinylated P28R: biotinylated P28R (KKLDTFFVKLSLFTER; also: biotinylated, site not given here)
binding to PBMCs [2]: bind directly to PBMCs

FFVKLS (Peptide 32230)
PBMC activation (enhanced expression of CD69 or CD71) [1]: did not activate healthy PBMC's | PBMC activation (enhanced expression of CD69) [3]: activated PBMCs

Reference: US20210401926A1, “PHARMACEUTICAL FORMULATIONS OF PEPTIDE INHIBITORS” (CANIMGUIDE THERAPEUTICS AB, priority 2018, published 2021)
